# In patent US20240115557A1, “INHIBITORS OF RNA-GUIDED NUCLEASES AND USES THEREOF” (The Brigham and Women's Hospital, Inc., priority 2022, published 2024):
# Target: T1, SaCas9 (Staphylococcus aureus, UniProt J7RUA5)
# T1 sequence (J7RUA5 1-1053): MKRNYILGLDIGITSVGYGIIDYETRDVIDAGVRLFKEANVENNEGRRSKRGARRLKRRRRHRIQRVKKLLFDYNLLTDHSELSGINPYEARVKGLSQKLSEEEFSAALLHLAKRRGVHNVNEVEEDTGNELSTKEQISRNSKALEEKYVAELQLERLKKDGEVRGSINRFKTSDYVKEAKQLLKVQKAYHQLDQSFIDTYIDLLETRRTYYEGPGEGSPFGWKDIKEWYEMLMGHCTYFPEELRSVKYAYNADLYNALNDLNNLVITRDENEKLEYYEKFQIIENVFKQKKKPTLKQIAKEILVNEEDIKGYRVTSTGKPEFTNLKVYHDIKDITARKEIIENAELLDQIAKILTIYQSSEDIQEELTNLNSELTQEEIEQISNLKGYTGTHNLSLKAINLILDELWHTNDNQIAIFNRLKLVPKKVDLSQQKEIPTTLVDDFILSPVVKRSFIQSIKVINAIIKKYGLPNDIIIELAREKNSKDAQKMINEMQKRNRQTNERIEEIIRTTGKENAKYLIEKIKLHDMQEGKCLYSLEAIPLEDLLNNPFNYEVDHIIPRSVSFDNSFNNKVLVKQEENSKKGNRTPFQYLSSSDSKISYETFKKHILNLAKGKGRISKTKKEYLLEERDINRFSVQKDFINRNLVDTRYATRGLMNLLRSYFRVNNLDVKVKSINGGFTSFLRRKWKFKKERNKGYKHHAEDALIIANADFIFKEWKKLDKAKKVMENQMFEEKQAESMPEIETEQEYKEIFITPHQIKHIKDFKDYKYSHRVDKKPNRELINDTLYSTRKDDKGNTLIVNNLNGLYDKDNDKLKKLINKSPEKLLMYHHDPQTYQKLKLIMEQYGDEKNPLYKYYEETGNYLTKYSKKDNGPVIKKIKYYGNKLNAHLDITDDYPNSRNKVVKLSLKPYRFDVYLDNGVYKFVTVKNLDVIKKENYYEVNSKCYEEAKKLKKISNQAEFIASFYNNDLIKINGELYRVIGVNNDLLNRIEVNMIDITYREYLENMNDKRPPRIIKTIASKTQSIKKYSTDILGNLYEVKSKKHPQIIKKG
# Test: Strand displacement assay, SaCas9 primary screen
# Assay type: biochemical
# Details: for Auto Zscore Rep 1 / Auto Zscore Rep 2 / Normalized Zscore Rep 1 / Normalized Zscore Rep 2: SaCas9 primary screen; for Auto Zscore Rep 1 / Normalized Zscore Rep 1: replicate 1; for Auto Zscore Rep 2 / Normalized Zscore Rep 2: replicate 2; for Normalized Zscore Rep 1 / Normalized Zscore Rep 2: weaker potential hits; for 3 sigma Hit: flag 1 = hit at 3 sigma; for 5 sigma Hit: flag 1 = hit at 5 sigma
# Experimental: An overview of the screening for SaCas9 inhibitors is depicted in FIG. 14. A total of 43,168 Compounds were screened from the ICCB Libraries. Libraries screened for the initial compounds include ChemDiv 7 (34,848 cpds), Enamine 1 (5,280 cpds), ChemDiv1 (1,760 cpds), NIH Clinical Collection (450 cpds), Biomol 4—FDA Approved Library (640 cpds). A hit is determined from the Zscore, with 3-5σ being a weak hit, >5σ being a strong hit. The results of the hits include 193 Weak Hits and 249 Strong Hits. The NIH Clinical Collection 1-2014 was screened for 450 of 450 compounds, with 7 hits—1.5%. The Biomol 4—FDA Approved Library was screened for 640 of 640 compounds, with 8 hits—1.2%. […] Enamine 1 was screened for 5,280 of 6,004 compounds, with 44 hits—0.83%. Libraries are commercially available, with reference numbers utilized for compounds identifying the compound structures used. […]
# Generalization of CAA to other Cas nucleases. Applicants sought to generalize CAA to other CRISPR-associated nucleases, including from Staphylococcus aureus (SaCas9). Given the similarities between SaCas9 and SpCas9 modes of DNA-substrate binding and protein folding,^26, 27 Applicants hypothesized that SaCas9-induced strand displacement could be similarly measured. Indeed, fluorescence quenching correlated with substrate cleavage in the CAA assay with active SaCas9:gRNA and an ACGGGT PAM sequence, which was validated with gel electrophoresis (FIG. 62F,G and FIG. 69F).
# First, Applicants optimized various components and conditions of the strand displacement assay for Cas enzyme activity and generality with different Cas such as SpCas9 (FIG. 62B) or SaCas9 (FIG. 69F) or FnCas12a (FIG. 70A,B). Typically, SpCas9: gRNA (1:1.2 ratio) RNP was pre-formed at 1 μM in Cas9 assay buffer (20 mM Tris-HCl, pH=7.5, 100 mM KCl, 5 mM MgCl2) for 5 min at 4° C. before diluting to 10 nM in Cas9 assay buffer (2× final concentration). 25 μL of the Cas9 2× stock was manually dispensed to a black 384-well plate (Corning 3575) using electronic pipette. Apo SpCas9 (without guide RNA) was used at the same concentration as a control for no activity (mock inhibition). Following this, pre-annealed Alexa-Fluor 647 labeled substrate and quencher were also diluted to 1 nM and 5 nM in Cas9 assay buffer, respectively (2× stock solution). Next, 25 μL of the substrate/quencher solution was added manually to each well of the Cas9-containing 384-well plates using an electronic pipette and was incubated at 37° C. for 2.5 h. Fluorescent signals were read with the microplate reader set to read Alexa-Fluor 647 fluorescence. Assay was performed similarly with SaCas9 and FnCas12a using the respective enzyme, gRNA, substrate, and quencher oligos. Applicants similarly divulged the effect of PAM sequences of dsDNA on its assay specificity using TGG, TGC, AAC PAM containing substrates for SpCas9 (FIG. 62C), and ACGGGT, ACGGTT, TGCCCA PAM substrate for SaCas9 (FIG. 62F) and TTTC, TTGC, AAAG PAM substrates for FnCpf1 (FIG. 63B-C). Applicants also optimized the effective concentration of DS-AF647 and SS-AF647 fluorophores (FIG. 64A), DS-substrate to SpCas9 RNP ratio (FIG. 64B) and substrate to quencher ratio (FIG. 64C) on assay performance. Similarly, Applicants performed a time course experiment to establish the time required for maximum completion of the reaction at various substrate to SpCas9 RNP ratios (FIG. 64D).
Auto Zscore Rep 1,Auto Zscore Rep 2,Normalized Zscore Rep 1,Normalized Zscore Rep 2,3 sigma Hit,5 sigma Hit,Compound
1.24,0.8474,0.2151,0.2232,1,1,Cc1cc(-c2nn3c(COc4ccccc4)nnc3s2)no1 [Cpd D727-0624]
0.8719,0.05327,0.2028,0.2126,1,–,Cc1cc(-c2nnc3sc(COc4ccccc4Cl)nn23)[nH]n1 [Cpd D727-0910]
−1.043,2.015,0.4191,0.3634,1,1,CC1(C)CC(=O)C2=C(C1)Nc1onc(C(C)(C)C)c1C2c1ccc(O)c(O)c1 (centres unmarked) [Cpd D733-0293]
0.3653,−0.5622,0.1731,0.1458,1,–,CN1C(C(=O)Nc2sc3c(c2C(N)=O)CCCC3)=CC(c2ccc(F)cc2)=NS1(=O)=O [Cpd E135-0568]
−0.4666,0.1007,0.2235,0.1821,1,–,CC1CCC(NC(=O)C2(C)Cn3c(cc4occc43)C(=O)N2CCN(C)C2CCCCC2)CC1 (centres unmarked) [Cpd E218-0425]
1.418,1.057,0.2592,0.1597,1,–,CC1(C(=O)NC2CCCCC2)Cn2c(cc3ccccc32)C(=O)N1c1ccc2c(c1)OCCO2 (centres unmarked) [Cpd E234-0056]
−0.03529,0.492,0.2255,0.1818,1,–,Cc1sc2c(c1C)CSC(C(=O)Nc1c(C)n(C)n(-c3ccccc3)c1=O)=C2 [Cpd E722-1395]

# Continued, compound first:
Compound,Auto Zscore Rep 1,Auto Zscore Rep 2,Normalized Zscore Rep 1,Normalized Zscore Rep 2,3 sigma Hit,5 sigma Hit
Cc1noc2c1C(c1ccc(O)c(O)c1)C1=C(CC(c3ccccc3)CC1=O)N2 (centres unmarked) [Cpd D588-0186],0.2858,−0.8337,0.2526,0.3021,1,1
Cc1noc2c1C(c1ccc(O)c(O)c1)C1=C(CC(c3ccc(O)cc3)CC1=O)N2 (centres unmarked) [Cpd D588-0188],0.6685,0.2374,0.2133,0.2195,1,1
CCOc1ccc(NC(=O)c2oc3cc(C)ccc3c2C)c2cccnc12 [Cpd D656-0040],−0.413,−1.287,0.4389,0.3581,1,1
Cc1cccc(Nc2nc(C(N)=O)c(NC(=O)c3ccc(F)cc3)s2)c1C [Cpd D686-0236],2.51,1.919,0.2077,0.4936,1,–
O=c1oc2c(O)c(O)ccc2c2c1CCC2 [Cpd D715-0012],−0.8066,−0.8068,0.4402,0.5823,1,1
O=c1ccc2ccc(OCc3nnn[nH]3)cc2o1 [Cpd D715-0997],1.322,0.6629,0.2335,0.4628,1,–
O=c1oc2cc(OCc3nnn[nH]3)c(Cl)cc2c2c1CCC2 [Cpd D715-1040],0.03234,2.456,0.2698,0.4064,1,1
Cc1ccc(OCc2nn3c(-c4ccoc4C)nnc3s2)cc1 [Cpd D727-0112],−0.1513,−0.2297,0.2865,0.3127,1,1
Cc1ccc(OCc2nn3c(-c4ccoc4C)nnc3s2)cc1C [Cpd D727-0113],1.744,−0.999,0.1802,0.1627,1,–
Cc1occc1-c1nnc2sc(COc3ccc(Br)cc3)nn12 [Cpd D727-0114],1.154,−0.6566,0.2766,0.2635,1,1
Fc1ccc(-c2nn3c(CSc4ccccc4)nnc3s2)cc1 [Cpd D727-0190],0.8466,−0.6764,0.2272,0.2685,1,1
COCCc1nnc2n1N=C(c1ccc(Cl)cc1)CS2 [Cpd D727-0342],−0.6224,1.036,0.1633,0.1771,1,–
c1ccc(-c2nnc3sc(-c4ccncc4)nn23)nc1 [Cpd D727-0542],−0.3775,1.249,0.1921,0.2295,1,1
Cc1cc(-c2nn3c(C(C)C)nnc3s2)no1 [Cpd D727-0612],−0.2589,−0.2694,0.1368,0.1972,1,–
